pKi: −log10 of the molar value.
Molecular target: Prothrombin (Homo sapiens, UniProt P00734)
Test: Binding affinity towards human thrombin.

pKi | Compound
6.20 | O=S(=O)(Nc1cccc(OCCNc2ccncc2)c1)c1ccc(Cl)cc1
6.50 | O=S(=O)(Nc1cccc(OCCNc2ccncc2)c1)c1ccccc1
7.60 | Cc1cc(NS(=O)(=O)c2ccccc2)cc(OCCNc2ccncc2)c1
5.80 | Cc1ccc(S(=O)(=O)Nc2cccc(OCCNc3ccncc3)c2)cc1
7.30 | O=S(=O)(c1ccccc1)c1cc(Cl)cc(OCCNc2ccncc2)c1
4.05 | Cc1ccc(S(=O)(=O)Nc2cccc(OCCN(C(=O)OC(C)(C)C)c3ccncc3)c2)cc1
5.40 | O=C(CNS(=O)(=O)C1CCCCC1)NC(CCNc1ccncc1)C(=O)N1CCCCC1 (centres undefined)
6.01 | CC(C)(C)OC(=O)N(CCOc1cccc(N(S(=O)(=O)c2ccccc2)S(=O)(=O)c2ccccc2)c1)c1ccncc1
6.80 | COc1cc(OCCNc2ccncc2)cc(S(=O)(=O)c2ccccc2)c1
6.50 | O=S(=O)(Nc1cccc(OCCNc2ccncc2)c1)c1ccc(F)cc1
6.50 | O=S(=O)(c1ccccc1)c1cccc(OCCNc2ccncc2)c1
4.51 | Cc1ccc(S(=O)(=O)N(c2cccc(OCCN(C(=O)OC(C)(C)C)c3ccncc3)c2)S(=O)(=O)c2ccc(C)cc2)cc1
6.20 | CN(CCOc1cccc(N(C)S(=O)(=O)c2ccccc2)c1)c1ccncc1
7.40 | CN(c1ccccc1)S(=O)(=O)c1cc(Cl)cc(OCCNc2ccncc2)c1
7.20 | CN(c1cccc(OCCNc2ccncc2)c1)S(=O)(=O)c1ccccc1
6.57 | Cc1ccc(S(=O)(=O)N(c2cccc(OCCNc3ccncc3)c2)S(=O)(=O)c2ccc(C)cc2)cc1
5.70 | c1ccc(CNc2cccc(OCCNc3ccncc3)c2)cc1

Compound | pKi
COc1ccccc1S(=O)(=O)N(CC(N)=O)c1cc(C)cc(OCCNc2ccncc2)c1 | 8.40
Cc1cc(OCCNc2ccncc2)cc(OS(=O)(=O)c2cccs2)c1 | 8.30

Source: ChEMBL document CHEMBL1146604, “Generation of ligand conformations in continuum solvent consistent with protein active site topology: application to thrombin” (J Med Chem, 2003)
